# Experiments:
# [1] = system: HepG2 cells; test: Wound healing assay; format: cell-based, human; settings: 72 h; 0.5 μM complex 1, 0.3 μM complex 2 (noncytotoxic)
# Experimental: Wound healing assays were performed as previously described. The cells were grown to 80–90% confluency in 12-well plates, and a wound was formed by dragging a plastic pipette tip over the cell surface. The remaining cells were washed three times with saline solution to eliminate cell debris before being cultured in serum-free media and treated with drugs. After 0 and 72 h of incubation, the migrating cells in front of the wound were photographed using an optical microscope (Nikon, TS 100). The wound area was calculated using ImageJ software from the National Institutes of Health (NIH, USA).
# [2] = system: HepG2 cells; test: Trypan blue exclusion assay; format: cell-based, human; settings: HepG2, 72 h
# Experimental: The number of viable cells (unstained cells) and nonviable cells (trypan blue-stained cells) was counted by the trypan blue exclusion test. Briefly, 90 μL of cell suspension was selected, and 10 μL of trypan blue (0.4%) was added. A hemocytometer was used to fill the aliquot of the homogenized cell suspension, and the cells were counted under a light microscope.
# [3] = Toxicity parameters in xenografted mice; format: in vivo, C.B-17 SCID mice; settings: 2 or 4 mg/kg i.p., 21 days; for changes in body weight or organs (liver, kidney, lung, heart): P > 0.05; for histopathological changes in the hearts: data not shown
# Source text: All animals were weighed at the start and end of the experiment to assess toxicological aspects. The animals were continuously examined for anomalies during the trial. The livers, kidneys, lungs, and hearts were removed and weighed before being preserved in 4% formaldehyde, dehydrated in a graded alcohol series, cleaned in xylene, and embedded in paraffin wax. The tissue was sliced into 5 μm thick slices, stained with hematoxylin and/or periodic acid-Schiff (liver and kidney), and histologically evaluated via optical microscopy.
# [4] = system: HepG2 cells; test: p62/SQSTM1 expression (autophagy); format: cell-based, human; settings: HepG2, 24 h; 8 μM complex 1, 6 μM complex 2
# Experimental: To stain intracellular proteins, the cells were harvested and resuspended in 0.5-1 mL of 4% formaldehyde for 10 min at 37 °C. The tube was then placed on ice for 1 min, after which the cells were prechilled and permeabilized using a sequence of 100% (30 min) to 90% (30 min) methanol with gentle mixing. After washing with incubation buffer (0.5% bovine serum albumin in PBS), primary antibodies were added and incubated for 1 h at room temperature. Finally, the cells were washed with PBS, and flow cytometry was used to measure cell fluorescence.
# The cells were grown on coverslips in 24-well plates and exposed to the drugs for 24 h. The cells were then washed twice with saline solution, permeabilized with 0.5% Triton X-100, treated with RNase (10 μg/mL), and incubated overnight with a primary fluorochrome-conjugated antibody (for antibody details, see Table S5). The next day, the cells were washed with saline solution and mounted using Fluoromount-G with DAPI (Invitrogen, Thermo Fisher Scientific). The cells were examined using a Leica TCS SP8 confocal microscope (Leica Microsystems, Wetzlar, HE, Germany).
# [5] = system: HepG2 cells; test: Mitochondrial transmembrane potential (rhodamine 123); format: cell-based, human; settings: HepG2, 24 h
# Experimental: For apoptosis detection, cell viability was quantified using Annexin V-FITC/PI (FITC Annexin V Apoptosis Detection Kit I, BD Biosciences, San Jose, CA, USA) according to the manufacturer’s instructions. The cells were also stained with rhodamine 123 (5 μg/mL, Sigma Aldrich Co.) for 15 min at 37 °C in the dark to assess the mitochondrial transmembrane potential. After the cells were washed, they were incubated in saline for 30 min in the dark at 37 °C and analyzed by flow cytometry.
# [6] = system: HepG2 tumorspheres; test: HepG2 tumorspheres; format: cell-based, human; settings: for HepG2 tumorsphere growth: 3D tumorspheres; for cell death in HepG2 tumorspheres (AO/PI): 48 h, 10 μM complex 1, 5 μM complex 2
# Experimental: HepG2 cells were seeded at a low cell density (1000 cells/well in 2 mL) in 24-well low-adhesion plates (Corning, USA) using serum-free DMEM-F12 supplemented with 20 ng/mL EGF (PeproTech, USA), 20 ng/mL bFGF (PeproTech, USA), and B27 supplement (Invitrogen, Carlsbad, CA, USA). After 5 days of incubation (to allow spheroid formation), the cells were treated with 20, 10, 5, 2.5 or 1.25 µM of each complex. The cells were photographed after 0, 24, and 48 h of treatment using an optical microscope (Leica, DMI8). In a new set of experiments, cells were treated with 10 µM complex 1 or 5 µM complex 2 for 48 h, stained with acridine orange (1 μg/mL) plus PI (1 μg/mL) and analyzed by a Leica TCS SP8 confocal microscope (Leica Microsystems, Wetzlar, HE, Germany).
# [7] = system: HepG2 cells; test: Light scattering (FSC/SSC) by flow cytometry; format: cell-based, human; settings: 24, 48, 72 h
# Source text: Light scattering characteristics measured by flow cytometry were used to analyze cellular parameters such as size and complexity/granularity in HepG2 cells treated with complexes 1 and 2 (Fig. S6A–S6F). Forward light scattering (FSC) was employed as a cell size metric in this experiment, while side scattering (SSC) was used to determine cell complexity/granularity. […] Both morphological changes are associated with cellular apoptosis, corroborating the findings observed in cells stained with May-Grunwald-Giemsa.
# For all flow cytometry analyses, cellular fluorescence was measured using a BD LSRFortessa cytometer, BD FACSDiva software (BD Biosciences) and FlowJo software 10 (FlowJo LLC; Ashland, OR, USA). A minimum of 10,000 events were obtained per sample for intracellular staining, and a minimum of 30,000 events per sample were acquired for cell surface protein staining. Doublets were removed using FSC-A vs FCS-H and SCC-A vs SCC-H. Cellular debris was excluded from the analysis.
SMILES,"HepG2 cell migration, wound healing [1]",reduction of cell viability ([2]; 2 µM),reduction of cell viability ([2]; 4 µM),reduction of cell viability ([2]; 8 µM),"histopathological alterations of kidneys, livers, lungs [3]","changes in body weight or organs (liver, kidney, lung, heart) [3]",histopathological changes in the hearts [3],induction of autophagy (p62/SQSTM1 expression) [4],mitochondrial depolarization [5],HepG2 tumorsphere growth [6],cell death in HepG2 tumorspheres (AO/PI) [6],"cell size/granularity (FSC decrease, SSC increase) [7]",reduction of cell viability ([2]; 1.5 µM),reduction of cell viability ([2]; 3 µM),reduction of cell viability ([2]; 6 µM)
"F[P-](F)(F)(F)(F)F.O=c1cc[nH]c([S][Ru+])n1.c1ccc(-c2ccccn2)nc1.c1ccc(P(c2ccccc2)c2ccccc2)cc1.c1ccc(P(c2ccccc2)c2ccccc2)cc1 [Complex 1, trans-[Ru(2TU)(PPh3)2(bipy)]PF6]",reduced,46.5%,72.2%,95.8%,minor and/or reversible,No significant changes,No significant changes,none of them caused autophagy,Significant mitochondrial depolarization,reduced,caused cell death,caused cell shrinkage,,,
"Cc1cc(=O)nc([S][Ru+])[nH]1.F[P-](F)(F)(F)(F)F.c1ccc(-c2ccccn2)nc1.c1ccc(P(c2ccccc2)c2ccccc2)cc1.c1ccc(P(c2ccccc2)c2ccccc2)cc1 [Complex 2, trans-[Ru(6m2TU)(PPh3)2(bipy)]PF6]",reduced,,,,minor and/or reversible,No significant changes,No significant changes,none of them caused autophagy,Significant mitochondrial depolarization,reduced,caused cell death,caused cell shrinkage,39.4%,61.4%,93.5%

# Source: paper PMC11148080, “Ru(II)-based complexes containing 2-thiouracil derivatives suppress liver cancer stem cells by targeting NF-κB and Akt/mTOR signaling” (Cell Death Discovery, 2024)
